In patent US6528523B2, “Farnesyl protein transferase inhibitors” (Schering Corporation, priority 2000, dated 2003):

Assays:
[1] = target: T1, Farnesyl protein transferase (FPT) (Rattus norvegicus, UniProt Q02293+Q04631); experiment: In vitro enzyme assay: inhibition of farnesyl protein transferase; format: biochemical; settings: transfer of [3H]farnesyl from [3H]farnesyl pyrophosphate to Ras-CVLS
T1 construct: partially purified from rat brain by ammonium sulfate fractionation followed by Q-Sepharose; from tissue; host or cells: rat brain
Description: 1. In Vitro Enzyme Assay:
Human farnesyl protein transferase was also expressed in E. coli, using cDNA clones encoding both the a and b subunits. […] Human farnesyl protein transferase was partially-purified from the soluble protein fraction of E. coli as described above. […] Two forms of val^12-Ha-Ras protein were prepared as substrates for these enzymes, differing in their carboxy terminal sequence. One form terminated in cysteine-valine-leucine-serine (Ras-CVLS) the other in cystein-valine-leucine-leucine (Ras-CVLL). Ras-CVLS is a substrate for the farnesyl protein transferase while Ras-CVLL is a substrate for geranylgeranyl protein transferase I. The cDNAs encoding these proteins were constructed so that the proteins contain an amino-terminal extension of 6 histidine residues. Both proteins were expressed in Escherichia coli and purified using metal chelate affinity chromatography. The radio labelled isoprenyl pyrophosphate substrates, [^3H]farnesyl pyrophosphate and [^3H] geranylgeranyl pyrophosphate, were purchased from DuPont/New England Nuclear.
The reaction was allowed to proceed for 30 minutes at room temperature and then stopped with 0.5 ml of 4% sodium dodecyl sulfate (SDS) followed by 0.5 ml of cold 30% TCA. Samples were allowed to sit on ice for 45 minutes and precipitated Ras protein was then collected on GF/C filter paper mats using a Brandel cell harvester. […] Percent inhibition was calculated relative to the DMSO vehicle control.

Human tumor cells = experiment: Soft agar assay (anchorage-independent growth); format: cell-based; settings: colony outgrowth 10-16 days
Description: Anchorage-independent growth is a characteristic of tumorigenic cell lines. Human tumor cells are suspended in growth medium containing 0.3% agarose and an indicated concentration of a farnesyl transferase inhibitor. The solution is overlayed onto growth medium solidified with 0.6% agarose containing the same concentration of farnesyl transferase inhibitor as the top layer. After the top layer is solidified, plates are incubated for 10-16 days at 37° C. under 5% CO2 to allow colony outgrowth. After incubation, the colonies are stained by overlaying the agar with a solution of MTT (3-[4,5-dimethylthiazol-2-yl]-2,5-diphenyltetrazolium bromide, Thiazolyl blue) (1 mg/mL in PBS). Colonies are counted and the IC50's determined.

T1 sequence (Q02293 whole entry, one chain of several): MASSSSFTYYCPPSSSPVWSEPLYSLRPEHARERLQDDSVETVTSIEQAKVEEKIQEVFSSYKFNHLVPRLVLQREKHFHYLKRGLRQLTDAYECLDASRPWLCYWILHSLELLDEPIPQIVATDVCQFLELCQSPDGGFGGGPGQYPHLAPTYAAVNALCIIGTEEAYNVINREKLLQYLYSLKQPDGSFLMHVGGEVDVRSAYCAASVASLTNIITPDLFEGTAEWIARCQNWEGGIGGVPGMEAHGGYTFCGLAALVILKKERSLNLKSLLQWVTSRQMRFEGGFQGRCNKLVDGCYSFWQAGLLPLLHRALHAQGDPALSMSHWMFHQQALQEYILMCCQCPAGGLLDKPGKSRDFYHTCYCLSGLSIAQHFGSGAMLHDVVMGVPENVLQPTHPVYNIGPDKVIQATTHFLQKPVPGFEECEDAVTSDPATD

## CS(=O)(=O)N1CCC(C2c3ncc(Br)cc3C=Cc3cc(Cl)cc(Br)c32)CC1 (single isomer, unassigned) [Compound 13]
other
  melting point: 84 to 85 °C
[1]
  IC50: 0.0033 µM
Human tumor cells
  IC50: > 0.5 µM

## NC(=O)N1CCC(CC(=O)N2CCC(C3c4ncc(Br)cc4C=Cc4cc(Cl)cc(Br)c43)CC2)CC1 (single isomer, unassigned) [Compound 16]
other
  melting point: 142 to 143 °C
[1]
  IC50: 0.016 µM

## NC(=O)N1CCC(CC(=O)N2CCC(C3c4ncc(Br)cc4C=Cc4cc(Cl)cc(Br)c43)CC2)CC1 (single isomer, unassigned) [Compound 15]
other
  melting point: 146 to 147 °C
[1]
  IC50: 0.0004 µM
Human tumor cells
  IC50: 0.05 µM

## CS(=O)(=O)N1CCC(C2c3ncc(Br)cc3C=Cc3cc(Cl)cc(Br)c32)CC1 (single isomer, unassigned) [Compound 14]
other
  melting point: 91 to 92 °C
[1]
  IC50: > 0.018 µM

## O=C(Cc1cc[n+]([O-])cc1)N1CCC(C2c3ncc(Br)cc3C=Cc3cc(Cl)cc(Br)c32)CC1 (single isomer, unassigned) [Compound 12]
other
  melting point: 142 to 143 °C
[1]
  IC50: > 0.017 µM

## O=C(Cc1cc[n+]([O-])cc1)N1CCC(C2c3ncc(Br)cc3C=Cc3cc(Cl)cc(Br)c32)CC1 (single isomer, unassigned) [Compound 11]
other
  melting point: 137 to 139 °C
[1]
  IC50: 0.00032 µM
Human tumor cells
  IC50: 0.03 µM
